Key:
Assay type in all cases: in vivo, rat
[1] = tested on: animal model of dry eye; test: Inhibition and treatment effect on dry corneal epithelial damage, tear amount by tear test strip; conditions: 10 μl of 0.5 mg/ml eye drop solution for 2 weeks, FIG. 2
Description: For experiments on dry corneal epithelial damage, an animal model of dry eye was prepared. It was induced by instill 1% atropine sulfate and 0.1% benzalkonium chloride twice a day for 2 weeks. After administration of the dry eye inducer, the experimental animals were applied by ocular administration according to the above-described administration method at an interval of 1 hour.
After administration of the sample for 2 weeks, the animals were anesthetized with isoflurane, and then the tear amount of each rat was measured using a Shrimer tear test strip.

[2] = tested on: MUC4; test: Mucin gene expression by real-time PCR in conjunctival epithelium after eye drop administration; conditions: 10 μl of 0.5 mg/ml eye drops twice a day for 5 days, right eye vs saline left eye; corrected by β-actin; FIG. 1
Description: (§1) α-humulene was administered to the eye in the following way: 6 male rats with a body weight of about 200 g were used, and the left eye was designated as the control group and the right eye was designated as the experimental group. Samples as eye drops were administered to the eye twice a day for 5 days and 10 μl of physiological saline was administered to the left eye (control group) and 10 μl of 0.5 mg/ml α-humulene diluted in physiological saline was administered to the right eye (experimental group) as eye drops. Animals were sacrificed to extract the conjunctival epithelium containing the fornix conjunctiva from the eyes and the extracted tissue was isolated and used for molecular biological analysis.
(§2) RNA was extracted from the ocular tissues of rats according to the manufacturers instructions using RNeasy mini kit from Qiagen (USA). The cDNA was synthesized using the cDNA synthesis kit of Qiagen (USA) from the isolated RNA, and then it was used for real-time polymerase chain reaction (real-time PCR). Real-time PCR was performed according to the manufacturer's instructions using Qiagen's Rotor-Gene Q 2 plex real-time DNA amplifier and Qiagen's two-step PCR SYBR kit, and the amount of amplified DNA was quantitatively compared. Specifically, after pre-denaturation at 95° C. for 5 minutes based on the cycling protocol, each 40 cycles were repeated at 95° C. for 5 seconds and at 60° C. for 10 seconds, and it was performed in the order of the melting step rising for 3 minutes from 60° C. to 95° C. The product amplified by the real-time PCR was quantified using the Delta delta Ct method, and corrected by the expression amount of β-actin for each sample.

[3] = tested on: MUC1; test: as above; conditions: 10 μl of 0.5 mg/ml eye drops twice a day for 5 days, right eye vs saline left eye; corrected by β-actin; FIG. 1
Description: as §1, §2

[4] = tested on: MUC6; test: as above; conditions: 10 μl of 0.5 mg/ml eye drops twice a day for 5 days, right eye vs saline left eye; corrected by β-actin; FIG. 1
Description: as §1, §2

Compound: C/C1=C\CC/C(C)=C/CC(C)(C)/C=C/C1 [α-humulene]
- amount of tears ([1]; AS/BAC-induced dry eye, tear test strip): significant difference in the amount of tears
- therapeutic effect on dry corneal epithelial damage ([1]; dry eye induced by 1% atropine sulfate/0.1% benzalkonium chloride (AS/BAC)): showed the therapeutic effect of the corneal epithelium
- expression of MUC4 [2]: increased significantly
- expression of MUC1 [3]: increased significantly
- expression of MUC6 [4]: increased significantly

Source: patent US11766410B2, “Composition for preventing or treating dry eye syndrome containing α-humulene as active ingredient” (INJE UNIVERSITY INDUSTRY-ACADEMIC COOPERATION FOUNDATION, priority 2018, dated 2023)
